Test results taken from patent US9963464B2, “Macrocyclic compounds” (Bayer Pharma Aktiengesellschaft, priority 2014, dated 2018).

Assays:
[1] = target: T1, human PTEFb (CDK9/Cyclin T1) (Homo sapiens, UniProt P50750); assay: Surface plasmon resonance PTEFb; type: binding; conditions: SPR; for koff: read-out: Dissociation rate constant koff; for Target resident time: 1/koff
T1 construct: purchased ProQinase, Freiburg, Germany
Excerpt: 8. Surface Plasmon Resonance PTEFb
The term “surface plasmon resonance”, as used herein, refers to an optical phenomenon that allows for the analysis of the reversible associations of biological molecules in real time within a biosensor matrix, for example using the Biacore® system (GE Healthcare Biosciences, Uppsala, Sweden). Biacore® uses the optical properties of surface plasmon resonance (SPR) to detect alterations in the refractive index of a buffer, which changes as molecules in solution interact with the target immobilized on the surface. In brief, proteins are covalently bound to the dextran matrix at a known concentration and a ligand for the protein is injected through the dextran matrix. Near infrared light, directed onto the opposite side of the sensor chip surface is reflected and also induces an evanescent wave in the gold film, which in turn, causes an intensity dip in the reflected light at a particular angle known as the resonance angle. If the refractive index of the sensor chip surface is altered (e.g. by compound binding to the bound protein) a shift occurs in the resonance angle. This angle shift can be measured.
The term “KD”, as used herein, is intended to refer to the equilibrium dissociation constant of a particular compound/target protein complex.
The term “koff”, as used herein, is intended to refer to the off-rate, i.e. the dissociation rate constant of a particular compound/target protein complex.
The term “target residence time”, as used herein, is intended to refer to the inverse of the rate of dissociation rate constant (1/koff) of a particular compound/target protein complex.
The ability of the compounds according to the invention to bind human PTEFb may be determined using surface plasmon resonance (SPR). KD values and koff values may be measured using a Biacore® T200 instrument (GE Healthcare, Uppsala, Sweden).
For SPR measurements, recombinant human PTEFb (CDK9/Cyclin T1 recombinant human active protein kinase purchased from ProQinase, Freiburg, Germany) is immobilized using standard amine coupling (Johnsson B et al, Anal Biochem. 1991 Nov. 1; 198(2):268-77). Briefly, carboxymethylated dextran biosensor chips (CM7, GE Healthcare) are activated with N-ethyl-N′-(3-dimethylaminopropyl)-carbodiimide hydrochloride (EDC) and N-hydroxysuccinimide (NHS) according to the supplier's instructions. Human PTEFb is diluted in 1×HBS-EP+(GE Healthcare) into 30 μg/ml and injected on the activated chip surface. Subsequently, a 1:1 solution of 1 M ethanolamine-HCl (GE Healthcare) and 1×HBS-EP is injected to block unreacted groups, resulting in approximately 4000 response units (RU) of immobilized protein. A reference surface is generated by treatment with NHS-EDC and ethanolamine-HCl. Compounds are dissolved in 100% dimethylsulfoxide (DMSO, Sigma-Aldrich, Germany) to a concentration of 10 mM and subsequently diluted in running buffer (1×HBS-EP+pH 7.4 [generated from HBS-EP+Buffer 10× (GE Healthcare): 0.1 M HEPES, 1.5 M NaCl, 30 mM EDTA and 0.5% v/v Surfactant P20], 1% v/v DMSO). For kinetic measurements, four-fold serial dilutions of compound (0.39 nM to 100 nM) are injected over immobilized protein. Binding kinetics is measured at 25° C. with a flow rate of 50 μl/min in running buffer. Compound concentrations are injected for 60 s followed by a dissociation time of 1800 s. The resulting sensorgrams are double-referenced against the reference surface as well as against blank injections.
The double-referenced sensorgrams are fit to a simple reversible Langmuir 1:1 reaction mechanism as implemented in the Biacore® T200 evaluation software 2.0 (GE Healthcare). In cases were full compound dissociation has not occurred at the end of the dissociation phase, the Rmax parameter (response at saturation) is fit as local variable. In all other cases, Rmax is fit as global variable.

Caco-2 permeation assay = type: in vitro ADME; conditions: human, pH 7.2, Caco-2 monolayer, 2 μM test compound; for Papp A→B at 2 h, 2 μM: read-out: Papp A-B (Mari); for Papp B→A at 2 h, 2 μM: read-out: Papp B-A (Mari); for efflux ratio at 2 h, 2 μM: read-out: Efflux ratio (Papp B-A/Papp A-B)
Experimental: 5. Caco-2 Permeation Assay:
Caco-2 cells (purchased from DSMZ Braunschweig, Germany) were seeded at a density of 4.5×10^4 cells per well on 24 well insert plates, 0.4 μm pore size, and grown for 15 days in DMEM medium supplemented with 10% fetal bovine serum, 1% GlutaMAX (100×, GIBCO), 100 U/mL penicillin, 100 μg/mL streptomycin (GIBCO) and 1% non essential amino acids (100×). Cells were maintained at 37° C. in a humidified 5% CO2 atmosphere. Medium was changed every 2-3 day. Before running the permeation assay, the culture medium was replaced by a FCS-free hepes-carbonate transport buffer (pH 7.2). For assessment of monolayer integrity the transepithelial electrical resistance (TEER) was measured. Test compounds were predissolved in DMSO and added either to the apical or basolateral compartment in final concentration of 2 μM in transport buffer. Before and after 2 h incubation at 37° C. samples were taken from both compartments. Analysis of compound content was done after precipitation with methanol by LC/MS/MS analysis. Permeability (Papp) was calculated in the apical to basolateral (A→B) and basolateral to apical (B→A) directions. The apparent permeability was calculated using following equation: Papp=(Vr/Po)(1/S)(P2/t) Where Vr is the volume of medium in the receiver chamber, Po is the measured peak area or height of the test drug in the donor chamber at t=o, S the surface area of the monolayer, P2 is the measured peak area of the test drug in the acceptor chamber after 2 h of incubation, and t is the incubation time. The efflux ratio basolateral (B) to apical (A) was calculated by dividing the Papp B-A by the Papp A-B. In addition the compound recovery was calculated.

[2] = 25° C., below 5E-5 s^-1 not resolvable

T1 sequence (P50750 whole entry): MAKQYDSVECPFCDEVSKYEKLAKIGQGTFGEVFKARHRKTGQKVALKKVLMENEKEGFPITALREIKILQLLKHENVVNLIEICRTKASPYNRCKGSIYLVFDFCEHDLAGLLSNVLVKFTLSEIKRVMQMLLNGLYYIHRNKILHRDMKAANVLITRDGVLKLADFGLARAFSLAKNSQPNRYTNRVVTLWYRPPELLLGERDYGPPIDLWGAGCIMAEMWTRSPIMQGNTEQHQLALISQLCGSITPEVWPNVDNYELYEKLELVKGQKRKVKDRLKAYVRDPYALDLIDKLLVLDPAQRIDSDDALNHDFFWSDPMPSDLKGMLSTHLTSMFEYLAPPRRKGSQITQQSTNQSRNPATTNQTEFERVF
T1 sequence (O60563 whole entry partner): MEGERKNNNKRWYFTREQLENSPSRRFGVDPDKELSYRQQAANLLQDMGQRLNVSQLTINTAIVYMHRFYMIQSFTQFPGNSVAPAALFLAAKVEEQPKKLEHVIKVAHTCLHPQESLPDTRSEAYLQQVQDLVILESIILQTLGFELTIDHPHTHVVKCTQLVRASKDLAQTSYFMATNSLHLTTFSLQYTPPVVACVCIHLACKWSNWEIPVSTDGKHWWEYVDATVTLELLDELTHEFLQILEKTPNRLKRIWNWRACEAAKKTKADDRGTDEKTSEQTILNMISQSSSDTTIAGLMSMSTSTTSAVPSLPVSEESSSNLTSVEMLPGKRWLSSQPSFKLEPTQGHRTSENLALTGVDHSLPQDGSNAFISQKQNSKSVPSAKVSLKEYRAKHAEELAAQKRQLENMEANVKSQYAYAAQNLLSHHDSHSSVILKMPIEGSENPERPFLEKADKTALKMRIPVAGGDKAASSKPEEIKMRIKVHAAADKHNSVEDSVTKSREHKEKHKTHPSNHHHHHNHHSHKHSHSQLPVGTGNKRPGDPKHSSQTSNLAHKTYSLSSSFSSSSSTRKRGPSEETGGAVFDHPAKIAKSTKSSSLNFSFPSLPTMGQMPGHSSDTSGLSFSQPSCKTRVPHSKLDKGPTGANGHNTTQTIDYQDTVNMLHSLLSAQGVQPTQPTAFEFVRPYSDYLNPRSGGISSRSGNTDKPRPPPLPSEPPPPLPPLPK

koff [1, 2] | Target resident time [1] | Papp A→B at 2 h, 2 μM (Caco-2 permeation assay) | Papp B→A at 2 h, 2 μM (Caco-2 permeation assay) | efflux ratio at 2 h, 2 μM (Caco-2 permeation assay) | Dissociation rate constant koff [1, 2] | Structure (SMILES)
< 5e-05 s⁻¹ | >333 min | – | – | – | – | C[S+]([O-])Cc1cc2nc(c1)OCCCOc1cc(F)ccc1-c1cc(ncc1F)N2 (racemic) [Example 4, (rac)-15,19-Difluoro-8-[(methylsulfinyl)methyl]-3,4-dihydro-2H,11H-10,6-(azeno)-12,16-(metheno)-1,5,11,13-benzodioxadiazacyclooctadecine]
0.00245 s⁻¹ | 6.8 min | – | – | – | – | C[S+]([O-])Cc1cc2nc(c1)OCCOc1cc(F)ccc1-c1cc(ncc1F)N2 (racemic) [Example 10, (rac)-14,18-difluoro-7-[(methylsulfinyl)methyl]-2,3-dihydro-10H-9,5-(azeno)-11,15-(metheno)-1,4,10,12-benzodioxadiazacycloheptadecine]
0.0029 s⁻¹ | 5.7 min | – | – | – | – | CS(=N)(=O)Cc1cc2nc(c1)OCCOc1cc(F)ccc1-c1cc(ncc1F)N2 (racemic) [Example 11, (rac)-14,18-difluoro-7-[(S-methylsulfonimidoyl)methyl]-2,3-dihydro-10H-9,5-(azeno)-11,15-(metheno)-1,4,10,12-benzodioxadiazacycloheptadecine]
< 5e-05 s⁻¹ | >333 min | – | – | – | – | C[S+]([O-])Cc1cc2nc(c1)OCCCCOc1cc(F)ccc1-c1cc(ncc1F)N2 (racemic) [Example 13, (rac)-16,20-difluoro-9-[(methylsulfinyl)methyl]-2,3,4,5-tetrahydro-12H-11,7-(azeno)-13,17-(metheno)-1,6,12,14-benzodioxadiazacyclononadecine]
< 5e-05 s⁻¹ | >333 min | – | – | – | – | CS(=N)(=O)Cc1cc2nc(c1)OCCCCOc1cc(F)ccc1-c1cc(ncc1F)N2 (racemic) [Example 14, (rac)-16,20-difluoro-9-[(S-methylsulfonimidoyl)methyl]-2,3,4,5-tetrahydro-12H-11,7-(azeno)-13,17-(metheno)-1,6,12,14-benzodioxadiazacyclononadecine]
< 5e-05 s⁻¹ | >333 min | – | – | – | – | CS(=O)(Cc1cc2cc(c1)OCCCOc1cc(F)ccc1-c1nc(ncc1F)N2)=NC(=O)C(F)(F)F (racemic) [Example 16, (rac)-N-[{[15,19-difluoro-3,4-dihydro-2H,11H-12,16-(azeno)-10,6-(metheno)-1,5,11,13-benzodioxadiazacyclooctadecin-8-yl]methyl}(methyl)oxido-λ^6-sulfanylidene]-2,2,2-trifluoroacetamide]
– | – | 8.7 ×10⁻⁶ cm/s | 8.8 ×10⁻⁶ cm/s | 1 | – | CCNC(=O)N=S(C)(=O)Cc1cc2nc(c1)OCCCOc1cc(F)ccc1-c1cc(ncc1F)N2 (racemic) [Example 17, (rac)-1-[{[15,19-difluoro-3,4-dihydro-2H,11H-10,6-(azeno)-12,16-(metheno)-1,5,11,13-benzodioxadiazacyclooctadecin-8-yl]methyl}(methyl)oxido-λ^6-sulfanylidene]-3-ethylurea]
– | – | 8.2 ×10⁻⁶ cm/s | 12.6 ×10⁻⁶ cm/s | 1.5 | – | CS(=O)(=O)N=S(C)(=O)Cc1cc2nc(c1)OCCCOc1cc(F)ccc1-c1cc(ncc1F)N2 (racemic) [Example 22, (rac)-N-[{[15,19-difluoro-3,4-dihydro-2H,11H-10,6-(azeno)-12,16-(metheno)-1,5,11,13-benzodioxadiazacyclooctadecin-8-yl]methyl}(methyl)oxido-λ^6-sulfanylidene]methanesulfonamide]
– | – | 0.6 ×10⁻⁶ cm/s | 44.2 ×10⁻⁶ cm/s | 69.7 | – | CS(=O)(Cc1cc2nc(c1)OCCCOc1cc(F)ccc1-c1cc(ncc1F)N2)=NS(=O)(=O)CCN (racemic) [Example 23, (rac)-2-amino-N-[{[15,19-difluoro-3,4-dihydro-2H,11H-10,6-(azeno)-12,16-(metheno)-1,5,11,13-benzodioxadiazacyclooctadecin-8-yl]methyl}(methyl)oxido-λ^6-sulfanylidene]ethanesulfonamide]
< 5e-05 s⁻¹ | >333 min | – | – | – | – | CS(=N)(=O)Cc1cc2nc(c1)OCCCOc1cc(F)ccc1-c1cc(ncc1F)N2 (single isomer, unassigned; enantiomer 1) [Example 6, 15,19-Difluoro-8-[(S-methylsulfonimidoyl)methyl]-3,4-dihydro-2H,11H-10,6-(azeno)-12,16-(metheno)-1,5,11,13-benzodioxadiazacyclooctadecine; Enantiomer 1]
– | >333 min | – | – | – | < 5e-05 s⁻¹ | CS(=N)(=O)Cc1cc2nc(c1)OCCCOc1cc(F)ccc1-c1cc(ncc1F)N2 (single isomer, unassigned; enantiomer 2) [Example 7, 15,19-Difluoro-8-[(S-methylsulfonimidoyl)methyl]-3,4-dihydro-2H,11H-10,6-(azeno)-12,16-(metheno)-1,5,11,13-benzodioxadiazacyclooctadecine; Enantiomer 2]
< 5e-05 s⁻¹ | >333 min | – | – | – | – | CSCc1cc2nc(c1)OCCCOc1cc(F)ccc1-c1cc(ncc1F)N2 [Example 3, 15,19-Difluoro-8-[(methylsulfanyl)methyl]-3,4-dihydro-2H,11H-10,6-(azeno)-12,16-(metheno)-1,5,11,13-benzodioxadiazacyclooctadecine]
0.00024 s⁻¹ | 69.4 min | – | – | – | – | CSCc1cc2nc(c1)OCCOc1cc(F)ccc1-c1cc(ncc1F)N2 [Example 9, 14,18-Difluoro-7-[(methylsulfanyl)methyl]-2,3-dihydro-10H-9,5-(azeno)-11,15-(metheno)-1,4,10,12-benzodioxadiazacycloheptadecine]
< 5e-05 s⁻¹ | >333 min | – | – | – | – | CSCc1cc2nc(c1)OCCCCOc1cc(F)ccc1-c1cc(ncc1F)N2 [Example 12, 16,20-Difluoro-9-[(methylsulfanyl)methyl]-2,3,4,5-tetrahydro-12H-11,7-(azeno)-13,17-(metheno)-1,6,12,14-benzodioxadiazacyclononadecine]
